We go through one compound from BindingDB's records for doi:10.1021/acsmedchemlett.8b00406 (China Agricultural University, 2018).

For the assay, the target named is beta-hexosaminidase HsHex (Homo sapiens). The assay can be described thus: Inhibition of human beta-N-acetylhexosaminidase using p-nitrophenyl glycoside as substrate by spectrometric method.

Each structure is given as a SMILES string.

The compound `O=C1c2cccc3cccc(c23)C(=O)N1CCNCCN1C(=O)c2cccc3cccc(c23)C1=O` returned a Ki of 3.2 µM.
